Here are results for one compound from PMC8321398, “The discovery of a novel series of compounds with single-dose efficacy against juvenile and adult Schistosoma species” (PLoS Neglected Tropical Diseases, 2021).

The nature of series [1]: Metabolic stability in human hepatocytes. Type of series: in vitro ADME. Particulars: hepatocytes (suspension), pH 7.4, 90 min incubation, read-out: Human hepatocyte % remaining at 90 min. On the procedure: (§1) 100 μM compound stock solution was prepared from 5 μL of 4 mM stock in DMSO + 195 μL MeCN. Working solution (2 μM compound) was prepared using 10 μL of 100 μM stock + 490 μL buffer pH 7.4 (KHB supplemented with CaCl2, NaHCO3, HEPES, fructose, glycine; pH 7.4).
(§2) Working solution (25 μL, 2 μM) was added in duplicate to wells in a 0.5 mL per well, 96 well plate which was preincubated to reach 37°C. Hepatocyte suspension (25 μL) was added to each plate, and the plate incubated (37°C, 95% relative humidity with 5% CO2 supply) under gentle mixing (Thermomixer @300 rpm). After designated time periods, ice-cold MeCN (250 μL) was added with a suitable standard. For T = 0 min, ice-cold MeCN (250 μL) with suitable standard was added to the working solution (2 μM) and hepatocyte suspension (25 μL) added. The plates for each time point were shaken, sonicated for 5 mins and kept at 4°C until the final plate was processed. The plates were centrifuged at 4,000 rpm for 20 min, supernatant (110 μL) was mixed with water (110 μL) and the samples analysed using LC-MS/MS.

Series [2] in a line: Human dose prediction with the PK Tool. Particulars: PK Tool; predicted plasma conc at 24 h 7 fold above calculated adult worm blood potency. The text has this: • We assume that the plasma concentration achieved in mouse sufficient to kill worms is the same as the plasma concentration we need to achieve in humans to see the same effect. A component element is an assumption that the mechanism of S. mansoni worm reduction in mouse and human are the same. • We assume that allometric scaling can be used to estimate human clearance based on mouse clearance. One factor that would make this assumption unsafe is if the clearance mechanisms and rates for our series in mouse and human were different. Fortunately, in vivo clearance correlates well with metabolic stability calculated from in vitro mouse hepatocyte measurements (Fig 7A). In vitro stability estimates in mouse and human hepatocytes are also fairly well correlated (Fig 7B).
Estimates of dose prediction in human were made using the PK Tool. A simple estimate of an effective human dose for LSHTM-3520 can be made by making the assumption that a plasma concentration of 2,000 ng/mL 24 h after oral administration (the same as that achieved in Fig 6B) would give sufficient clinical efficacy. […] To design compounds with a lower predicted human dose we pursued two strategies, one to improve potency by optimisation of the core and substituents, the other to decrease clearance through blocking positions we thought likely to be vulnerable to metabolic enzymes and/or conformational restriction.
Assuming linear kinetics the plasma levels scaled from the low-dose oral PK experiment (2.5 mg/kg) for LSHTM-3520 (8 ng/mL) after 24 h would be 160 ng/mL from […] and 640 ng/mL at […].

The nature of another series: Kinetic solubility. Type of series: physicochemical. The source says: Table 4 in vitro, physicochemical and in vivo properties of compounds pictured in Fig 10. | column: Measured physicochemical properties / Kinetic solubility, pH 7.4 (uM); Measured physicochemical properties / Kinetic solubility, FaSSIF (uM); Measured physicochemical properties / Kinetic solubility, FeSSIF (uM)

Series [3] is described as follows: Metabolic stability in mouse hepatocytes. It counts as in vitro ADME. Particulars: hepatocytes (suspension), pH 7.4, 90 min incubation, read-out: Mouse hepatocyte % remaining at 90 min. How it is done:
as §1, §2

Series [4] in a line: Plasma protein binding in human plasma at 10 uM, equilibrium dialysis. Type of series: in vitro ADME. How it is done:
(§3) Each experiment was performed in duplicate for the compound being tested. A working solution of compound was prepared from 10 μL of 10 mM solution in DMSO + 190 μL 40:60 MeCN:Water. A Total solution was prepared from 12 μL of working solution + 588 μL plasma (compound conc: 10 μM, DMSO: 0.1%, ACN:0.76%). In an equilibrium dialysis chamber, Total solution (200 μL) was added to the plasma chamber and PBS pH 7.4 (350 μL) was added to the buffer chamber. The chamber was then incubated at 37°C for 6 h with constant shaking at 400 rpm (Thermomixer comfort, Eppendorf). Aliquots were removed from both plasma and buffer chambers and the following test samples prepared: Blank: blank Plasma (20 μL) + blank buffer (60 μL), Buffer: blank plasma (20 μL) + test buffer (60 μL), Plasma: test plasma (20 μL) + blank buffer (60 μL), Total: total sample (20 μL) + blank buffer (60 μL). Ice-cold acetonitrile (160 μL), containing a suitable standard was added to all samples, they were shaken vigorously and centrifuged at 4,000 rpm for 20 min at 15°C. Supernatant (110 μL) from each sample was diluted with water (110 μL) and the sample analysed by LC-MS/MS.
(§4) % Free = 100 × (AREA in buffer × dilution factor)/(AREA in Plasma × dilution factor)
(§5) % Recovery = 100 ×[(Avg AREA in buffer × dilution factor) + (Avg AREA in Plasma × dilution factor)] / (Avg AREA in Total × dilution factor)
In general terms: In equilibrium dialysis only unbound substance equilibrates across the membrane.

Series [5] can be described thus: Plasma protein binding in mouse plasma at 10 uM, equilibrium dialysis. It counts as in vitro ADME. How it is done:
as §3, §4, §5

A short description of the next series: Mouse pharmacokinetics.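 Also: three mice per experiment, dosed in 10% DMSO with 50 mM Na2HPO4 buffer plus Tween-80, plasma levels quantified by LC-MS against a calibration line prepared in blank matrix.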 Type of series: in vivo.

≈ marks a conversion by molar mass, not a printed value. Like-named read-outs stand apart in the source and are kept apart here.

Method for Mouse pharmacokinetics: Routine pharmacokinetics was carried out as previously described [24] with the following modifications: Swiss albino male mice of average weight 30 g with three animals per experiment. The final vehicle was 10% DMSO, 90% 50 mM Na2HPO4 with 0.5% Tween-80. Compounds were dosed singly (at a variety of doses as noted in the text) or more commonly in mixtures of 5 at 1 mg/kg per compound iv into the lateral tail vein or 2.5 mg/kg per compound by oral gavage. ~30 μl blood samples were taken by venepuncture, into heparinized capillary tubes and subsequently transferred into 0.5 ml micro-centrifuge tubes. Collection time points were 5 min (iv only), 15 min, 30 min, 1 h, 2 h, 4 h, 8 h & 24 h. All blood samples were processed for plasma by centrifugation at 4,000 rpm for 10 min at 4°C within half an hour of collection. Plasma samples were stored at -20°C until bioanalysis.
Prior to LC-MS analysis, all samples were extracted using protein precipitation using acetonitrile as the extraction solvent. For each batch of samples, a calibration line spanning an appropriate concentration range was created by spiking the compound of interest into blank matrix. The calibration line included 10 evenly spaced points. […] Where necessary, additional dilution QCs were included to validate the dilution process. Within each batch at least 3 study samples were assayed pre and post dilution to assess whether there was any impact from the presence of dosing vehicle in the samples. A linear regression was performed on peak area response ratios (analyte:IS) and the results used to back-calculate analyte concentrations. A batch of samples were considered acceptable if 75% of the calibration samples and 66% of the standard QC samples were within 20% of nominal. The linear range of the assay was defined by the calibration line ±20% i.e. the maximum reportable concentration was 120% of the highest concentration calibration sample that passed acceptance criteria. A metric plot of the IS response was reviewed to ensure the integrity of the study sample data.

Broadly, the share remaining is what is left of the initial amount, in per cent. As a reminder, the solubility (kinetic) is the concentration staying in solution when a stock, usually in DMSO, is diluted into the medium. The AUC(0-inf) is the area under the concentration-time curve extrapolated to infinity. By bioavailability is commonly meant dose-corrected exposure relative to a reference, in per cent. Broadly, the half-life is the time in which the quantity being followed falls by half. On to `CC(C)c1cc(-c2cn3c(-c4ccc5[nH]ncc5c4F)c(C4CC4)nc3cn2)ccc1F` [LSHTM-3686], for which the amount remaining at 1.5 h, 1 µM in series [1] and in series [3] was 75% throughout. For the same compound, in series [2], the “human single oral dose prediction” value is 1 mg/kg. Also, the solubility (kinetic) at 24 h in “Kinetic solubility” (FaSSIF, pH 6.5, read-out: Kinetic solubility, FaSSIF) amounted to 33.9 µM (≈ 14.6 µg/mL); in the series “Kinetic solubility” (FeSSIF, pH 5, read-out: Kinetic solubility, FeSSIF), 43.8 µM (≈ 18.8 µg/mL); in the series “Kinetic solubility” (pH 7.4, read-out: Kinetic solubility, pH 7.4) it was 0.885 µM (≈ 0.38 µg/mL). Further, the “Human plasma protein %binding” value in series [4] turned out to be 99.998%. In addition, the recovery at 6 h, 10 µM came to 62.7% in series [4] (human, human plasma, pH 7.4) and 76.1% in series [5] (mouse, mouse plasma, pH 7.4). The “Mouse plasma protein %binding” value in series [5] was 99.997%. For the same compound, the Clobs in “Mouse pharmacokinetics” (0.5 mg/kg iv, in a mixture of 5 compounds) was found to be 15.7 mL/min/kg. Besides, the half life in “Mouse pharmacokinetics” (0.5 mg/kg iv, in a mixture of 5 compounds, sampled over 24 h, 0.5 mg/kg) came to 6.2 h. The AUC(0-inf) in “Mouse pharmacokinetics” (male, Swiss albino, plasma, 0.5 mg/kg iv, in a mixture of 5 compounds) stood at 500 ng·h/mL. For the same compound, the Vd in “Mouse pharmacokinetics” (male, Swiss albino, plasma, 0.5 mg/kg iv, in a mixture of 5 compounds, read-out: Vss) worked out at 3.9 L/kg. The bioavailability in “Mouse pharmacokinetics” (male, Swiss albino, plasma, 2.5 mg/kg oral, mixture of 5 compounds, calculated values > 100% shown as 100) is 100%. The half-life in the series “Mouse pharmacokinetics” (male, Swiss albino, plasma, iv, 0.5 mg/kg, 0.5 mg/kg iv, in a mixture of 5 compounds, sampled over 24 h) was 6 h.
